# Results from patent US20060217400A1, “Triazolopyrimidines, methods for the production thereof, use thereof for controlling harmful fungi, and substances containing said triazolopyrimidines” (priority 2002, published 2006).
# Tested on: Alternaria solani
# Test: Activity against early blight of tomato caused by Alternaria solani
# Type: in vivo
# Conditions: 250 ppm, spray on tomato leaves, rated after 5 days; untreated control 80% infected
# Procedure: The active compounds were formulated separately as a stock solution comprising 0.25% by weight of active compound in acetone or DMSO. 1% by weight of the emulsifier Uniperol® EL (wetting agent having emulsifying and dispersing action based on ethoxylated alkylphenols) was added to this solution. The stock solutions of the active compounds were diluted with water to the stated concentration. Leaves of potted plants of the cultivar “Golden Princess” were sprayed to runoff point with an aqueous suspension having the concentration of active compound stated below. The next day, the leaves were infected with an aqueous spore suspension of Alternaria solani in 2% biomalt solution having a density of 0.17×10^6 spore/ml. The plants were then placed in a water-vapor saturated chamber at temperatures between 20 and 22° C. After 5 days, the blight on the untreated, but infected control plants had developed to such an extent that the infection could be determined visually in %.
compound,measurement,value
"CCC(C)Cc1c(-c2c(F)cc(F)cc2F)c(C)nc2nc(OC)nn12 (stereo not shown) [I-11, 2-Methoxy-5-methyl-6-(2,4,6-trifluorophenyl)-7-(2-methylbutyl)-1,2,4-triazolo[1,5a]pyrimidine]","infection of the leaves, determined visually",< 10%
